According to patent US5378475A, “Sustained release drug delivery devices” (priority 1991, dated 1995):

Columns and labels:
[1] = J. Ocular Pharmacol. 1988;1062:231; cited from earlier work
[2] = Diffusion/release of 5-FU through PVA membranes; assay type: in vitro ADME; conditions: heat treated PVA membrane
Excerpt: Subconjunctival administration of 5-FU as an adjunct to filtration surgery in high risk glaucoma patients is attended by the necessity of multiple subconjunctival injections and the potentially serious complications due to delayed wound healing. Alternative delivery systems have been proposed including liposomes, topical administration, and sustained release polymers. […] Therefore, the rate of release was further decreased by layering EVA within the PVA to create a membrane system that was 6×8 mm in size.

[3] = J. Ocular Pharmacol. 1988;1062:231; cited from earlier work; remark: listed apart in the source
[4] = system: rabbit retina; assay: 6 mg bolus dose of intravitreal GCV: retinal toxicity in rabbit (Example 3); assay type: in vivo, New Zealand albino rabbits; conditions: 6 mg bolus dose intravitreal, two eyes
[5] = Device/drug stability after heat treatment (Example 2); assay type: physicochemical
[6] = system: rabbit eye; design: species or system New Zealand albino rabbits; conditions: in vivo
Experimental: New Zealand albino rabbits weighing 1.5 to 2 kg were used in this study. Anesthesia was provided with intramuscular ketamine HCl (40 mg/kg), attopine sulfate (0.1 mg/kg), xylazine HCl (10 mg/kg) and topical proparacaine (0.5%).
A baseline photopic electroretinogram (ERG) was recorded preoperatively in each rabbit using a corneal contact lens. A Gansfeld stimulus was used to improve standardization of results. After sedation, the rabbits were placed inside a Gansfeld stimulator 20 cm away from the flash unit. Flash (cone and rod response) and flicker (cone response) ERGs were done under light adapted conditions. Graphic measurements were recorded, and the waveform amplitudes and implicit times were calculated.
This was done because the pars plana of the New Zealand albino rabbit is poorly developed and it was therefore necessary to implant the devices and take vitreous samples through retina. The ERG was repeated four weeks later immediately prior to insertion of the device. […]
Vitreous samples were periodically removed using a 20 gauge needle on a tuberculin syringe. […] After removal, vitreous samples were stored at -60° C until analyzed by HPLC. […]
Vitreous samples were not collected from the treated eyes. […] In this group, devices were removed from the eyes and the amount of GCV still present determined by HPLC. […]

[7] = system: CMV retinitis; conditions: intravitreal injections of 200 to 400 μg once or twice weekly; cited from earlier work
[8] = system: CMV retinitis; conditions: intravenous; cited from earlier work
[9] = system: AIDS patients; conditions: human, in vivo; cited from earlier work

For `O=c1[nH]cc(F)c(=O)[nH]1` [5-FU, 5-fluorouracil], the “permeability of EVA to 5-FU” value [1] is listed as “EVA was impermeable to 5-FU”, the “effect of heat treating the PVA membrane on 5-FU release rates” value [2] is listed as “release rates could be markedly decreased” and the “release of 5-FU through PVA” value [3] is listed as “PVA provided a linear release”.
In the case of `Nc1nc(O)c2ncn(COC(CO)CO)c2n1` [GCV, ganciclovir], the “toxicity by indirect ophthalmoscopy” value [4] is reported as “no evidence of toxicity”, the “drug loss or decomposition after heat treatment of ganciclovir pellet” value ([5]; HPLC analysis) is reported as “no apparent drug loss or decomposition” and the “near IR after heat treatment” value ([5]; individual component) is reported as “no change after heat treatment”. The observable retinal toxicity [6] was “No observable retinal toxicity”, the “effect on CMV retinitis” value [7] was “temporary remission of CMV retinitis in AIDS patients” and the bone marrow toxicity [8] was “bone marrow toxicity limits its usefulness”. For the same molecule, the “effect on CMV retinitis in AIDS patients” value [8] was “effective in the treatment of CMV retinitis in AIDS patients”.
For `Cc1cn([C@H]2C[C@H](N=[N+]=[N-])[C@@H](CO)O2)c(=O)[nH]c1=O` [zidovudine], the “effect in AIDS patients” value [9] is given as “prolong life and improve the immune function in AIDS patients”.
